Data as given in PubChem BioAssay AID330 (DTP/NCI, 2004).
Where “and” joins values, the source holds several entries; their conditions need not be identical. Equal entries are not always repeated. Toxic doses and inconclusive results are not listed.

System: P388 leukemia ip, CD2F1 mice, survival T/C
Assay: NCI In Vivo Anticancer Drug Screen. Data for tumor model P388 Leukemia (intraperitoneal) in CD2F1 (CDF1) mice
Conditions: endpoint: median survival time, higher = longer survival
How it was run: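 Mice carrying the transplanted tumor received test compound or vehicle. Survival was recorded in each group, and the value is the treated-group measurement divided by that of the vehicle-treated control group.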

[1] = dose: 50.0 mg/kg/injection, schedule: Q01DX005 (ip), vehicle: Klucel (hydroxypropylcellulose) (HPC)
[2] = dose: 100.0 mg/kg/injection, schedule: Q01DX005 (ip), vehicle: Klucel (hydroxypropylcellulose) (HPC)
[3] = dose: 200.0 mg/kg/injection, schedule: Q01DX005 (ip), vehicle: Klucel (hydroxypropylcellulose) (HPC)
[4] = dose: 50.0 mg/kg/injection, schedule: Q01DX009 (ip), vehicle: Klucel (hydroxypropylcellulose) (HPC)
[5] = dose: 100.0 mg/kg/injection, schedule: Q01DX009 (ip), vehicle: Klucel (hydroxypropylcellulose) (HPC)
[6] = dose: 200.0 mg/kg/injection, schedule: Q01DX009 (ip), vehicle: Klucel (hydroxypropylcellulose) (HPC)
[7] = dose: 50.0 mg/kg/injection, schedule: Q01DX005 (ip), vehicle: saline with Tween-80
[8] = dose: 60.0 mg/kg/injection, schedule: Q01DX005 (ip), vehicle: saline with Tween-80
[9] = dose: 120.0 mg/kg/injection, schedule: Q01DX005 (ip), vehicle: saline with Tween-80
[10] = dose: 240.0 mg/kg/injection, schedule: Q01DX005 (ip), vehicle: saline with Tween-80
[11] = dose: 50.0 mg/kg/injection, schedule: Q01DX009 (ip), vehicle: saline
[12] = dose: 100.0 mg/kg/injection, schedule: Q01DX009 (ip), vehicle: saline
[13] = dose: 200.0 mg/kg/injection, schedule: Q01DX009 (ip), vehicle: saline
[14] = dose: 25.0 mg/kg/injection, schedule: Q01DX005 (ip), vehicle: Klucel (hydroxypropylcellulose) (HPC)

For `O=C(O)c1cc(Cl)n[nH]c1=O`, the T/C [1] was 95 % of control, the T/C [2] was 92 % of control and the T/C [3] was 86 % of control.

With `Cc1ccc(S(=O)(=O)OCCOCCOCCOCCOCCOCCOCCOCCOCCOCCOCCOCCOCCOCCOS(=O)(=O)c2ccc(C)cc2)cc1` the T/C (dose: 37.5 mg/kg/injection, schedule: Q01DX001 (ip), vehicle: saline with Tween-80) was 101 % of control, the T/C (dose: 75.0 mg/kg/injection, schedule: Q01DX001 (ip), vehicle: saline with Tween-80) was 104 % of control and the T/C (dose: 150.0 mg/kg/injection, schedule: Q01DX001 (ip), vehicle: saline with Tween-80) was 102 % of control.

In the case of `CCOC(=O)CCCCCCCCNC(=O)N1c2c(nc(N)[nH]c2=O)NCC1CNc1ccc(C(=O)NC(CCC(=O)O)C(=O)O)cc1` (stereo unspecified), the T/C (dose: 50.0 mg/kg/injection, schedule: Q04DX003 (ip), vehicle: Klucel (hydroxypropylcellulose) (HPC)) is reported as 111 % of control, the T/C (dose: 100.0 mg/kg/injection, schedule: Q04DX003 (ip), vehicle: Klucel (hydroxypropylcellulose) (HPC)) is reported as 106 % of control and the T/C (dose: 200.0 mg/kg/injection, schedule: Q04DX003 (ip), vehicle: Klucel (hydroxypropylcellulose) (HPC)) is reported as 108 % of control.

`Cc1ccc(N2C(=O)CC3(CCCCC3)C2=O)cc1C` was tested, and the T/C [4] was 106 % of control, the T/C [5] was 105 % of control and the T/C [6] was 97 % of control.

`Cc1cc(Br)ccc1N1C(=O)CC(Sc2ccccc2N)C1=O` (stereo unspecified) was tested, and the T/C [1] was 88 % of control, the T/C [2] was 95 % of control and the T/C [3] was 100 % of control.

For `COc1ccc(-c2coc3c4c(c(CC=C(C)C)c(OC)c3c2=O)OC(C)(C)C=C4)cc1OC`, the T/C (dose: 12.5 mg/kg/injection, schedule: Q01DX005 (ip), vehicle: saline with Tween-80) was 102 % of control, the T/C (dose: 25.0 mg/kg/injection, schedule: Q01DX005 (ip), vehicle: saline with Tween-80) was 100 % of control and the T/C [7] was 98 % of control and 91 % of control.

With `C1CCSCCCCCSCCCCCSCCCCCSCC1` the T/C [4] was 97 % of control, the T/C [5] was 96 % of control and the T/C [6] was 94 % of control.

With `COC(=O)C(N)COC(=O)c1ccccc1` (stereo unspecified) the T/C (dose: 50.0 mg/kg/injection, schedule: Q01DX005 (ip), vehicle: saline) was 101 % of control, the T/C (dose: 100.0 mg/kg/injection, schedule: Q01DX005 (ip), vehicle: saline) was 100 % of control and the T/C (dose: 200.0 mg/kg/injection, schedule: Q01DX005 (ip), vehicle: saline) was 100 % of control.

In the case of `CC(CN(C)C)C(/C=C/c1ccc(F)cc1)=N\Nc1ccccc1` (stereo unspecified), the T/C [8] is reported as 102 % of control and the T/C [9] is reported as 122 % of control.

With `O=C(O)CCc1c[nH]c2ccc(N(CCCl)CCCl)cc12` the T/C (dose: 0.08 mg/kg/injection, schedule: Q04DX003 (ip), vehicle: saline with Tween-80) was 163 % of control, the T/C (dose: 0.15 mg/kg/injection, schedule: Q04DX003 (ip), vehicle: saline with Tween-80) was 100 % of control and the T/C (dose: 0.25 mg/kg/injection, schedule: Q01DX009 (ip), vehicle: saline) was 104 % of control. The T/C (dose: 0.33 mg/kg/injection, schedule: Q04DX003 (ip), vehicle: saline with Tween-80) was 177 % of control, the T/C (dose: 0.5 mg/kg/injection, schedule: Q04DX003 (ip), vehicle: saline with Tween-80) was 177 % of control and the T/C (dose: 0.75 mg/kg/injection, schedule: Q04DX003 (ip), vehicle: saline with Tween-80) was 104 % of control.

`C[C@H]1C(=O)OCN1S(=O)(=O)C(C)(C)C` was tested, and the T/C [8] was 101 % of control, the T/C [9] was 104 % of control and the T/C [10] was 102 % of control.

With `CCCC(C#N)(CCCl)c1ccccc1` (stereo unspecified) the T/C (dose: 100.0 mg/kg/injection, schedule: Q04DX003 (ip), vehicle: saline with Tween-80) was 100 % of control, the T/C (dose: 200.0 mg/kg/injection, schedule: Q04DX003 (ip), vehicle: saline with Tween-80) was 104 % of control and the T/C (dose: 400.0 mg/kg/injection, schedule: Q04DX003 (ip), vehicle: saline with Tween-80) was 95 % of control.

For `Cc1[nH]c(=O)[nH]c(=O)c1/C=C/C(=O)NC(CO)CS(=O)Cc1ccccc1` (stereo unspecified), the T/C (dose: 0.07 mg/kg/injection, schedule: Q01DX009 (ip), vehicle: water) was 100 % of control, the T/C (dose: 0.15 mg/kg/injection, schedule: Q01DX009 (ip), vehicle: water) was 102 % of control and the T/C (dose: 0.3 mg/kg/injection, schedule: Q01DX009 (ip), vehicle: water) was 100 % of control. For the same compound, the T/C (dose: 0.6 mg/kg/injection, schedule: Q01DX009 (ip), vehicle: water) was 103 % of control, the T/C (dose: 2.0 mg/kg/injection, schedule: Q01DX009 (ip), vehicle: other) was 114 % of control and the T/C (dose: 4.0 mg/kg/injection, schedule: Q01DX009 (ip), vehicle: other) was 118 % of control. The T/C (dose: 8.0 mg/kg/injection, schedule: Q01DX009 (ip), vehicle: other) was 122 % of control, the T/C (dose: 16.0 mg/kg/injection, schedule: Q01DX009 (ip), vehicle: other) was 118 % of control and the T/C (dose: 32.0 mg/kg/injection, schedule: Q01DX009 (ip), vehicle: other) was 99 % of control and 108 % of control. For the same compound, the T/C (dose: 64.0 mg/kg/injection, schedule: Q01DX009 (ip), vehicle: other) was 103 % of control, the T/C (dose: 128.0 mg/kg/injection, schedule: Q01DX009 (ip), vehicle: other) was 98 % of control and the T/C (dose: 200.0 mg/kg/injection, schedule: Q01DX009 (ip), vehicle: other) was 92 % of control. The T/C (dose: 256.0 mg/kg/injection, schedule: Q01DX009 (ip), vehicle: other) was 100 % of control, the T/C (dose: 300.0 mg/kg/injection, schedule: Q01DX009 (ip), vehicle: other) was 90 % of control and the T/C (dose: 400.0 mg/kg/injection, schedule: Q01DX009 (ip), vehicle: other) was 93 % of control.

`COc1cccc(-c2nsc(=O)o2)c1` was tested, and the T/C [5] was 108 % of control and the T/C [6] was 109 % of control.

With `NCC(O)c1ccc(O)cc1` (stereo unspecified) the T/C [11] was 101 % of control and 111 % of control, the T/C [12] was 106 % of control and 108 % of control and the T/C [13] was 106 % of control and 90 % of control. The T/C (dose: 400.0 mg/kg/injection, schedule: Q01DX009 (ip), vehicle: saline) was 89 % of control and 96 % of control and the T/C (dose: 600.0 mg/kg/injection, schedule: Q01DX009 (ip), vehicle: saline) was 89 % of control and 90 % of control.

For `COc1nc(C(Br)Br)c([N+](=O)[O-])c(N2CCOCC2)n1`, the T/C [14] was 109 % of control, the T/C [1] was 101 % of control and the T/C [2] was 87 % of control.

For `Cc1ccc(S(=O)(=O)OC(C)c2[nH]c(=O)n(C3CCCO3)c(=O)c2F)cc1` (stereo unspecified), the T/C [7] was 99 % of control, the T/C (dose: 100.0 mg/kg/injection, schedule: Q01DX005 (ip), vehicle: saline with Tween-80) was 91 % of control and the T/C (dose: 200.0 mg/kg/injection, schedule: Q01DX005 (ip), vehicle: saline with Tween-80) was 93 % of control.

In the case of `CCC(C)n1c(=O)cc(C)[nH]c1=O` (stereo unspecified), the T/C [11] is reported as 101 % of control, the T/C [12] is reported as 98 % of control and the T/C [13] is reported as 104 % of control.

`COc1cc(NS(C)(=O)=O)ccc1Nc1c2ccc(Cl)cc2nc2c(OC)cccc12` was tested, and the T/C (dose: 3.13 mg/kg/injection, schedule: Q01DX009 (ip), vehicle: saline) was 166 % of control, the T/C (dose: 6.25 mg/kg/injection, schedule: Q01DX009 (ip), vehicle: saline) was 195 % of control and the T/C (dose: 6.25 mg/kg/injection, schedule: Q04DX003 (ip), vehicle: saline with Tween-80) was 154 % of control. For the same compound, the T/C (dose: 8.25 mg/kg/injection, schedule: Q04DX003 (ip), vehicle: saline with Tween-80) was 179 % of control, the T/C (dose: 12.5 mg/kg/injection, schedule: Q01DX009 (ip), vehicle: saline) was 208 % of control and the T/C (dose: 12.5 mg/kg/injection, schedule: Q04DX003 (ip), vehicle: saline with Tween-80) was 170 % of control and 204 % of control. The T/C (dose: 18.75 mg/kg/injection, schedule: Q04DX003 (ip), vehicle: saline with Tween-80) was 229 % of control.

For `CCC[C@H]1[C@H](CCC)[C@@]2(OC(=O)C3=C2CCC=C3)[C@]12OC(=O)C1=C2CCC=C1`, the T/C (dose: 11.25 mg/kg/injection, schedule: Q01DX005 (ip), vehicle: Klucel (hydroxypropylcellulose) (HPC)) was 98 % of control, the T/C (dose: 22.5 mg/kg/injection, schedule: Q01DX005 (ip), vehicle: Klucel (hydroxypropylcellulose) (HPC)) was 90 % of control and the T/C (dose: 45.0 mg/kg/injection, schedule: Q01DX005 (ip), vehicle: Klucel (hydroxypropylcellulose) (HPC)) was 88 % of control. The T/C (dose: 90.0 mg/kg/injection, schedule: Q01DX005 (ip), vehicle: Klucel (hydroxypropylcellulose) (HPC)) was 100 % of control.

With `COC(=O)c1cc2ccc1OCC#CC#CCOc1ccc(cc1C(=O)OC)OCC#CC#CCO2` the T/C [8] was 89 % of control, the T/C [9] was 88 % of control and the T/C [10] was 88 % of control.

`CP(C)(=S)[S][Sn]([CH3])([CH3])[S]P(C)(C)=S` was tested, and the T/C (dose: 6.25 mg/kg/injection, schedule: Q01DX005 (ip), vehicle: Klucel (hydroxypropylcellulose) (HPC)) was 109 % of control and 113 % of control, the T/C (dose: 12.5 mg/kg/injection, schedule: Q01DX005 (ip), vehicle: Klucel (hydroxypropylcellulose) (HPC)) was 108 % of control and 115 % of control and 117 % of control and the T/C [14] was 105 % of control and 106 % of control and 122 % of control.
